Reference: a compilation of properties of binary mixtures (doi:10.1016/j.molliq.2017.04.129)

Assay: xn = mol fraction of the nth substance listed
Details: 100 kPa

COCCOCCO + CCCC[n+]1ccn(C)c1.O=S(=O)([O-])C(F)(F)F
speed of sound [m/s]
Details | x2 = 0 | x2 = 0.1 | x2 = 0.2056 | x2 = 0.3064 | x2 = 0.3986 | x2 = 0.4904 | x2 = 0.5981 | x2 = 0.6945 | x2 = 0.7795 | x2 = 0.9015
298.15 K | 1415.8 | 1423.6 | 1420.5 | 1415.5 | 1410.7 | 1406.3 | – | 1398.8 | 1396.8 | 1394.5
303.15 K | – | 1408.2 | 1406.1 | 1401.6 | 1397.5 | – | 1390 | 1386.9 | – | 1383.3
308.15 K | – | 1392.4 | 1391.5 | 1387.8 | 1384.4 | 1381 | 1378 | 1375.4 | 1374 | 1372
313.15 K | 1366.4 | 1376.8 | 1376.9 | – | 1371.3 | 1368.4 | – | – | 1362.6 | 1360.9
318.15 K | – | – | – | – | – | 1356 | 1354 | 1352.2 | 1351.2 | 1349.9
323.15 K | 1333.4 | 1345.6 | 1348 | 1346.9 | 1345.5 | 1343.6 | – | 1340.7 | – | 1338.9

CCCC[n+]1ccn(C)c1.O=S(=O)([O-])C(F)(F)F + COCCOCCO
x1 = 1
Details | speed of sound [m/s]
298.15 K | 1392.8
308.15 K | 1370.6
313.15 K | 1359.6
